Laboratory results published in patent publication US7247438B1, “Methods of identifying agents which enhance caspase activity” (priority 1997, dated 2007).
“Also recorded” adds a separate entry of the source. Peptide text beside a SMILES is read from it. * marks the point of attachment. Cbz = O=C(OCc1ccccc1)*; CH2F = FC*

Tests used:
[1] = tested on: CD4+ CD8+ DP thymocytes in FTOC of C57BL/6 mice; test: glucocorticoid (dexamethasone)-induced DP thymocyte death in FTOC, FACS analysis; type: cell-based, mouse
caspase-1 = target: T1, caspase-1 (Homo sapiens, UniProt P29466); settings: caspase-1 versus caspase-3; cited from earlier work
T1 sequence (P29466 120-297 limits assumed): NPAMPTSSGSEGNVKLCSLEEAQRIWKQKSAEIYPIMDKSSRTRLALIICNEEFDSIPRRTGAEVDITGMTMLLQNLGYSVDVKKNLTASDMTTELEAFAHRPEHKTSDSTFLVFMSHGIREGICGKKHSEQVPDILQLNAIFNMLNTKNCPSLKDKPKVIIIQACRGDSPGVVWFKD
T1 sequence (P29466 317-404 limits assumed): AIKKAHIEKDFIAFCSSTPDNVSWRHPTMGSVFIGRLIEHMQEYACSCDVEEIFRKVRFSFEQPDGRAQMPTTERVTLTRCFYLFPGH

[2] = tested on: DP thymocytes in FTOC of N15 TCR tg RAG-2−/− H-2b mice; type: cell-based, mouse; settings: for effect on antigen (VSV8)-induced depletion of DP thymocytes: N15 FTOC, 2 hours with 100 μM inhibitor followed by 18 hours with 10 μM VSV8
[3] = tested on: thymic caspase (~17 kD subunit); test: Western blot of thymic lysates: binding of biotinylated substrate to activated thymic caspase and competition; set-up: species or system mouse; settings: for blocking of biotin-DEVDamk binding to the antigen-activated caspase: pretreatment of thymic lysates with excess (100-fold molar, FIG. 2D) of inhibitor
[4] = tested on: thymocytes in N15 tg RAG-2−/− H-2b FTOC; type: cell-based, mouse
[5] = tested on: activated thymic caspase in N15 tg RAG-2−/− H-2b FTOC; type: cell-based, mouse; settings: for effect of pretreatment on VSV8-induced caspase activation (biotin-DEVDamk staining): FTOC, inhibitor pretreatment, then VSV8 4 hours
[6] = tested on: CD4+ CD8+ DP thymocytes in FTOC of C57BL/6 mice; test: anti-CD3ε mAb (2C11)-induced deletion of DP thymocytes in FTOC, FACS analysis; type: cell-based, mouse; set-up: effect on anti-CD3ε (2C11) mAb-induced deletion of DP thymocytes: dose or concentration left out as unconfirmed
[7] = tested on: Drosophila Schneider cells; settings: added to Drosophila Schneider cells; cited from earlier work
[8] = tested on: Rat thymocytes in suspension; settings: cited from earlier work
[9] = tested on: thymocytes in non-tg RAG-2−/− FTOC; type: cell-based, mouse
thymic caspase = test: caspase activation in thymic lysates of adult mice after tail vein peptide injection (Western blot); settings: mouse, in vivo
[10] = tested on: activated thymic caspase in adult N15 tg RAG-2−/− H-2b mice; settings: mouse, in vivo
[11] = target: T2, recombinant Mch2a (caspase-6) (Homo sapiens, UniProt P55212); test: Western blot: binding of biotinylated substrate to recombinant Mch2a; settings: FIG. 2B; 15 minutes with 2 mM biotin-DEVDamk
T2 construct: made in house
T2 sequence (P55212 24-179 limits assumed): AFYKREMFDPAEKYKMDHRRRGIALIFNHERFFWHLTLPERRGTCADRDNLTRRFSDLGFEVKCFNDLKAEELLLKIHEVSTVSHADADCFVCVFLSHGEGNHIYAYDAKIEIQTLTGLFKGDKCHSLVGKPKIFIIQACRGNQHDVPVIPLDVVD
T2 sequence (P55212 194-293 limits assumed): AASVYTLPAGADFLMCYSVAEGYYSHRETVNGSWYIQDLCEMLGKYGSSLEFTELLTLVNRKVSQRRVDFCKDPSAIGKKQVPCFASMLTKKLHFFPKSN

[12] = target: T3, recombinant Yama/caspase-3 (Homo sapiens, UniProt P42574); test: Western blot: binding of biotinylated substrate to recombinant Yama; settings: FIG. 2B; 15 minutes with 2 mM biotin-DEVDamk
T3 construct: made in house
T3 sequence (P42574 29-175 limits assumed): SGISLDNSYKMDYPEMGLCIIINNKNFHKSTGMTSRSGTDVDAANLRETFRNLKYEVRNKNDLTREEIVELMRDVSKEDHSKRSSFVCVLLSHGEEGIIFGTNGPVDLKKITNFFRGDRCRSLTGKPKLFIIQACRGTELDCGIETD
T3 sequence (P42574 176-277 limits assumed): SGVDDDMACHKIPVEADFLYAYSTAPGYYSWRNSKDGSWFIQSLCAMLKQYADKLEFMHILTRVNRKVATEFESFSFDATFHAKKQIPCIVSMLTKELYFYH

With `C[C@@H]1C[C@H]2[C@@H]3CCC4=CC(=O)C=C[C@]4(C)[C@@]3(F)[C@@H](O)C[C@]2(C)[C@@]1(O)C(=O)CO` [Dexamethasone] as the compound, how does the “percentage of DP thymocytes” value ([1]; FTOC, control 74%) read?
Its value is 19%.

For `CC(=O)N[C@@H](Cc1ccc(O)cc1)C(=O)N[C@H](C(=O)N[C@@H](C)C(=O)N[C@H](C=O)CC(=O)O)C(C)C` [Ac-YVAD-CHO], which “fold lower concentration to inhibit caspase-1 than required to inhibit caspase-3” value (caspase-1) is on record?
Its value is ~10,000 fold.

With `COC(=O)CC(NC(=O)C(C)NC(=O)C(NC(=O)OCc1ccccc1)C(C)C)C(C)=O` (centres unmarked) [zVADmk, N-(Z-Valinylalanyl)aspartic acid methyl ketone, b-methyl ester] as the compound, how does the “effect on antigen (VSV8)-induced depletion of DP thymocytes” value [2] read?
Its value is “has no effect; also recorded: fails to block”.

And the “blocking of biotin-DEVDamk binding to the antigen-activated caspase” value [3]?
Its value is “does not block”.

What about the “number of TdT (TUNEL) positive apoptotic cells in histological sections (in words)” value (shortened to “number … in histological sections (in words)”) [4] of the same compound?
The value was “levels of TdT positive cells similar to cultures treated with VSV8 alone; also recorded: no effect”.

What about the “effect of pretreatment on VSV8-induced caspase activation (biotin-DEVDamk staining)” value [5] of the same compound?
Its value is “not”.

Which “effect on antigen (VSV8)-induced depletion of DP thymocytes” value [2] does the source give for `COC(=O)C[C@H](NC(=O)[C@H](C)NC(=O)[C@@H](NC(=O)OCc1ccccc1)C(C)C)C(=O)CF` [zVADfmk, N-benzyloxycarbonyl-Val-Ala-Asp-fluoromethylketone, b-methyl ester] (Cbz-Val-Ala-Asp(OMe)-CH2F) here?
Its value is “completely blocks; also recorded: blocked; also recorded: blocks depletion”.

And the “effect on anti-CD3ε (2C11) mAb-induced deletion of DP thymocytes” value ([6]; 2-hour preincubation, harvested 18 hours later)?
The value was “inhibited; also recorded: blocked”.

What about the “effect of agent alone on percentage of DP thymocytes in FTOC” value ([6]; FTOC C57BL/6, no 2C11) of the same compound?
The value was “does not alter”.

What about the “effect on dexamethasone (glucocorticoid)-induced death/deletion of DP thymocytes” value ([1]; 2-hour pretreatment with 100 μM zVADfmk) of the same compound?
Its value is “protects; also recorded: blocked”.

And the “effect on apoptosis induced by expression of REAPER protein” value [7]?
The value was “blocks the induction of apoptosis”.

What about the “blocking of biotin-DEVDamk binding to the antigen-activated caspase” value [3] of the same compound?
Its value is “blocks binding; also recorded: prevents binding”.

What about the “number … in histological sections (in words)” value [4] of the same compound?
The value was “reduces the number of TdT+ cells to that of the control; also recorded: blocked”.

And the “effect of pretreatment on VSV8-induced caspase activation (biotin-DEVDamk staining)” value [5]?
Its value is “blocked”.

What about the “effect on glucocorticoid-induced death” value [8] of the same compound?
The value was “blocked”.

Which “TdT positive cells mm2, non-tg” value [9] does the source give for RGYVYQGL [VSV8] here?
The value was 9 mm2.

What about the “depletion/death of DP thymocytes induced by peptide (in words)” value [2] of the same compound?
Its value is “massive depletion”.

And the “percent CD4+ CD8+ DP thymocytes” value [2]?
Its value is 21.

And the “time to induction of an active caspase after tail vein injection” value (thymic caspase)?
Its value is no more than 2 h.

What about the “TdT positive cells mm2, N15tg #1” value [4] of the same compound?
The value was 429 mm2.

And the “TdT positive cells mm2, N15tg #2” value [4]?
Its value is 456 mm2.

And the “TdT positive cells mm2, N15tg #3” value [4]?
Its value is 441 mm2.

What about the “number … in histological sections (in words)” value [4] of the same compound?
Its value is “obvious increase”.

And the “biotin-DEVDamk staining of thymic sections” value [10]?
Its value is “widespread biotin-DEVDamk staining”.

And the “biotin-DEVDamk staining (activation of thymic caspase) in FTOC sections” value [5]?
Its value is “widespread biotin-DEVDamk staining throughout the cortex”.

With `Cc1cccc(C)c1C(=O)OCC(=O)C(CC(=O)O)NC(=O)[C@@H](NC(=O)[C@H](CCC(=O)O)NC(=O)[C@H](CC(=O)O)NC(=O)CCCC[C@@H]1SC[C@@H]2NC(=O)N[C@@H]21)C(C)C` (some centres unmarked) [biotin-DEVDamk, N-(Biotinylaspartylglutamylvalinyl)aspartic acid [(2,6-Dimethylbenzoyl)oxy]methyl Ketone] as the compound, how does the “binding of biotinylated substrate to recombinant Mch2a (caspase-6)” value [11] read?
Its value is “bind”.

What about the “detection of / affinity for the activated thymic caspase by biotinylated substrate” value [3] of the same compound?
The value was “highest affinity”.

What about the “binding of biotinylated substrate to recombinant Yama/caspase-3” value [12] of the same compound?
Its value is “bind”.

Which “depletion/death of DP thymocytes induced by peptide (in words)” value [2] does the source give for FAPGNYPAL [SEV9] here?
Its value is “does not result in thymocyte death”.
